Results taken from patent publication US10882860B2, “Treatment of osteoarthritis” (Samumed, LLC, priority 2015, dated 2021).
Marks after values point to notes of the source that are not given here.

Experiments:
[1] = tested on: Wnt genes TCF7, c-Myc, Axin-2, Ascl 2, and SP5; test: In vitro Wnt pathway inhibition, qRT-PCR in human MSCs; format: cell-based; settings: 30 nM; 48 hours; fold change vs DMSO; FIG. 15
Procedure: Human mesenchymal stem cells (MSCs) were plated in 6-well plates in chondrogenic induction medium (Lonza; DMEM, dexamethasone, ascorbate, insulin-transferrin-selenium [ITS supplement], gentamycin-amphotericin [GA-1000], sodium pyruvate, proline and L-glutamine) and treated with the compound of Formula (I) (30 nM) in DMSO or TGF-β3 (20 μg/mL) as a positive control. Cells were incubated at 37° C., 5% CO2 for 48 hours. Cells were pelleted and washed, and total RNA was isolated and purified using RNeasy Plus Mini Kit (Qiagen). cDNA was synthesized from 1 μg of total RNA using QuantiTect Reverse Transcription kit (Qiagen). qRT-PCR was performed with QuantiTect SYBR Green PCR Kit (Qiagen) and gene-specific primers, using CFX384 thermal cycler (Biorad). Transcripts were quantitated by comparative Ct method and normalized to endogenous controls, β-actin and GAPDH. Fold changes were normalized to DMSO treated cells.

nitric oxide release = test: Immunosuppression in chondrocytes: nitric oxide (Greiss reagent); format: cell-based, human; settings: cells stimulated with TNF-α and oncostatin M or IL-1β; 72 hours; FIG. 20B
Procedure: Human MSCs were plated in 10 cm dishes in chondrogenic induction medium (Lonza; DMEM, dexamethasone, ascorbate, insulin-transferrin-selenium [ITS supplement], gentamycin-amphotericin [GA-1000], sodium pyruvate, proline and L-glutamine) and treated with TGF-β3 (20 μg/mL) to induce chondrogenic differentiation. Cells from 4 dishes were pooled and re-plated in 24-well plates in Chondrogenic Induction Medium and treated with various concentrations of the compound of Formula (I). 4 hours later, cells were stimulated by adding TNF-α (20 μg/mL)+Oncostatin M ([…]) or IL-1β (10 μg/mL) and incubated at 37° C., 5% CO2 for 72 hours. Chondrocytes were digested with papain (Sigma). GAG content was measured using the dimethylmethylene blue (DMMB) kit (Chondrex). Briefly, the digested chondrocytes were mixed with DMMB in formate buffer and absorbance at 535 nm was measured using Cytation 3 (Biotek). Nitric oxide was measured using Greiss reagent (Promega) according to manufacturer's protocol.

[2] = tested on: moderate-to-severe symptomatic knee OA subjects; test: Phase 1 clinical study: safety and adverse events; format: in vivo, human; settings: for AE(s) Reported - All / AE(s) Reported - Target knee, Arthralgia / AE(s) Reported - Target knee, Injection site bruising / AE(s) Reported - Target knee, Injection site pain / AE(s) Reported - Target knee, Joint injury / AE(s) Reported - Target knee, Joint stiffiiess / AE(s) Reported - Target knee, Joint swelling / AE(s) Reported - Target knee, Meniscus injury / DLT(s) Reported / SAE(s) Reported: single IA injection
Procedure: A Phase 1 study was conducted to evaluate the safety and tolerability of the compound of Formula (I) (Form 1) administered by intra-articular injection into a target knee joint of moderate-to-severe symptomatic OA subjects.
The study was a first-in-human, multicenter, 24-week, placebo-controlled, single-dose, dose-escalation safety study of a Wnt pathway inhibitor in subjects suffering from moderate to severe symptomatic knee OA. The sample size was 20 subjects (randomized 4:1, 16 active: 4 placebo) per dosing cohort. Inclusion criteria included: Age, 50-75 years; Western Ontario and McMaster Universities Arthritis Index (WOMAC) Total score, 36-72 (out of 96); Kellgren-Lawrence grade, 2 or 3; and a willingness to omit pain medication for 24 hours prior to pain assessments. Exclusion criteria included: BMI>40; and treatment with IA steroids within 2 months or HA derivatives within 6 months prior to injection. A full list of the inclusion and exclusion criteria for this study can be found on clinicaltrials.gov (NCT02095548).
The dosing sequence included suspension compositions of either 0.03 mg, 0.07 mg, or 0.23 mg of the compound of Formula (I) (Form 1) per 2 mL injection in a vehicle containing 0.5% carboxymethylcellulose sodium and 0.05% polysorbate 80 in pH 7.4 phosphate buffered saline. The placebo contained only the diluent of 0.5% carboxymethylcellulose sodium and 0.05% polysorbate 80 in pH 7.4 phosphate buffered saline. The subjects were given a single, intra-articular injection in the target knee on Treatment Day 1 and participated in a follow-up period of 24 weeks.
Safety, pharmacokinetics (PK), biomarker, and efficacy data were collected at baseline and during the 24-week follow-up period. Safety data included adverse events (AEs), concomitant medications, clinical laboratory sampling, medical history, vital signs, ECGs, hip bone density (DXA) analysis, qCT of the target knee, and evaluation of bone edema via MM. For PK data, samples were collected 0, 4, and 24 hours post dose, and at Weeks 4 and 12. Biomarker data included data for procollagen type 1 N-propeptide (P1NP), beta C-terminal telopeptide of type 1 collagen (βCTX), and cartilage oligomeric matrix protein (COMP). Efficacy data included measurements of WOMAC Total score, WOMAC Function and Pain subscores, pain VAS, Physician Global Assessment of Disease Activity, MM, and radiographs. Efficacy assessments were used to determine the percentage of OMERACT-OARSI “strict” responders. Exploratory analyses of efficacy outcomes were conducted using a baseline-adjusted repeated measures analysis of covariance (ANCOVA) in the Intention-to-Treat (ITT) population. The sponsor was unblinded after Week 12 for each cohort; site investigators remained blinded. All AEs reported in this study were […]. Investigator opinion regarding whether AEs were related to the compound of Formula (I) was also collected for informational purposes.

In the case of `CC(C)CC(=O)Nc1cncc(-c2ccc3[nH]nc(-c4nc5c(-c6cccc(F)c6)cncc5[nH]4)c3c2)c1` [compound of Formula (I)], the “expression of Wnt genes TCF7, c-Myc, Axin-2, Ascl 2, and SP5” value [1] is reported as “downregulation”, the “release of nitric oxide” value (nitric oxide release) is reported as “reduced” and the “Subjects Who Reported AE(s) [N(%)]” value ([2]; 0.03 mg cohort) is reported as 9 (53%) N(%). The “Subjects Who Reported No AE(s) [N(%)]” value ([2]; 0.03 mg cohort) was 8 (47%) N(%), the “AE(s) Reported - All” value ([2]; 0.03 mg cohort) was 15 and the “AE(s) Reported - Target knee, Arthralgia” value ([2]; 0.03 mg cohort) was 1. For the same compound, the “AE(s) Reported - Target knee, Injection site bruising” value ([2]; 0.03 mg cohort) was 0, the “AE(s) Reported - Target knee, Injection site pain” value ([2]; 0.03 mg cohort) was 0 and the “AE(s) Reported - Target knee, Joint injury” value (from here on “AE(s) Reported … Joint injury”) ([2]; 0.03 mg cohort) was 1. For the same compound, the “AE(s) Reported - Target knee, Joint stiffiiess” value ([2]; 0.03 mg cohort) was 0, the “AE(s) Reported - Target knee, Joint swelling” value ([2]; 0.03 mg cohort) was 0 and the “AE(s) Reported - Target knee, Meniscus injury” value ([2]; 0.03 mg cohort) was 0. For the same compound, the “DLT(s) Reported” value ([2]; 0.03 mg cohort) was 0, the “SAE(s) Reported” value ([2]; 0.03 mg cohort) was 0 and the “Subjects Who Reported AE(s) [N(%)]” value ([2]; 0.07 mg cohort) was 6 (37%) N(%). The “Subjects Who Reported No AE(s) [N(%)]” value ([2]; 0.07 mg cohort) was 10 (63%) N(%), the “AE(s) Reported - All” value ([2]; 0.07 mg cohort) was 11 and the “AE(s) Reported - Target knee, Arthralgia” value ([2]; 0.07 mg cohort) was 1. For the same compound, the “AE(s) Reported - Target knee, Injection site bruising” value ([2]; 0.07 mg cohort) was 0, the “AE(s) Reported - Target knee, Injection site pain” value ([2]; 0.07 mg cohort) was 2 and the “AE(s) Reported … Joint injury” value ([2]; 0.07 mg cohort) was 0. The “AE(s) Reported - Target knee, Joint stiffiiess” value ([2]; 0.07 mg cohort) was 0, the “AE(s) Reported - Target knee, Joint swelling” value ([2]; 0.07 mg cohort) was 1 and the “AE(s) Reported - Target knee, Meniscus injury” value ([2]; 0.07 mg cohort) was 0. For the same compound, the “DLT(s) Reported” value ([2]; 0.07 mg cohort, increased target knee pain and paroxysmal tachycardia) was 2*, the “SAE(s) Reported” value ([2]; 0.07 mg cohort, paroxysmal tachycardia) was 1* and the “Subjects Who Reported AE(s) [N(%)]” value ([2]; 0.23 mg cohort) was 7 (44%) N(%). The “Subjects Who Reported No AE(s) [N(%)]” value ([2]; 0.23 mg cohort) was 9 (56%) N(%), the “AE(s) Reported - All” value ([2]; 0.23 mg cohort) was 25 and the “AE(s) Reported - Target knee, Arthralgia” value ([2]; 0.23 mg cohort) was 1. The “AE(s) Reported - Target knee, Injection site bruising” value ([2]; 0.23 mg cohort) was 1, the “AE(s) Reported - Target knee, Injection site pain” value ([2]; 0.23 mg cohort) was 1 and the “AE(s) Reported … Joint injury” value ([2]; 0.23 mg cohort) was 0. The “AE(s) Reported - Target knee, Joint stiffiiess” value ([2]; 0.23 mg cohort) was 1, the “AE(s) Reported - Target knee, Joint swelling” value ([2]; 0.23 mg cohort) was 1 and the “AE(s) Reported - Target knee, Meniscus injury” value ([2]; 0.23 mg cohort) was 1. For the same compound, the “DLT(s) Reported” value ([2]; 0.23 mg cohort) was 0, the “SAE(s) Reported” value ([2]; 0.23 mg cohort) was 0 and the “AEs considered related to study medication by the reporting investigator” value ([2]; 16 of 77 AEs) was 22%. For the same compound, the “exposed subjects who reported no AEs” value ([2]; 27 of 49 exposed subjects) was 55% and the “overall safety and tolerability” value ([2]; single IA injection of suspension formulated from Form 1, interim data) was “safe, well-tolerated”.
